Measurements published in patent publication US10344019B2 (priority 2010, dated 2019).
pEC50: −log10 of the molar value. Read-outs that look alike come from different tables or passages of the source.

Key:
Type in all cases: cell-based
[1] = tested on: HCV 2a Rluc cells (NS5A chimeric genotype 2a JFH-1 replicon with genotype 2a J6 strain NS5A gene, M31 present); assay: HCV replicon reporter assay, genotype 2a J6 (M31 present); details: Hepatitis C virus, read-out: 2a J6
How it was run: (§1)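 Replicon cells stably carrying the listed RLuc-encoding dicistronic replicons were seeded and treated with DMSO serial dilutions of compound (10 mM stocks) diluted into culture medium. After 72 h, cells were lysed and Renilla luciferase activity measured. EC50 was derived by non-linear regression.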

[2] = tested on: Q30R in genotype 1a NS5A, 1a Rluc replicon transfected into Huh-7 cured-51 cells; assay: HCV replicon assay, resistance mutant 1a Q30R; details: Hepatitis C virus, Huh-7, read-out: 1a Q30R
How it was run: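 Cells were Huh-7 cured-51 transfected with replicon RNA of a genotype 1a H77 RLuc replicon carrying site-directed Q30R in NS5A.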

[3] = tested on: HCV 3a RLuc cells (NS5A chimeric genotype 1b Con1 replicon with consensus genotype 3a NS5A gene); assay: microbe, parasite or virus in culture; details: Hepatitis C virus
How it was run: as §1

[4] = tested on: HCV 1a RLuc cells (dicistronic genotype 1a H77 replicon, RLuc reporter); assay: microbe, parasite or virus in culture; details: Hepatitis C virus, read-out: 1a
How it was run: as §1

[5] = tested on: HCV 2b Rluc cells (NS5A chimeric genotype 2a JFH-1 replicon with genotype 2b MD2b-1 NS5A gene, M31 present); assay: microbe, parasite or virus in culture; details: Hepatitis C virus, read-out: 2b
How it was run: as §1

[6] = tested on: HCV 1b RLuc cells (dicistronic genotype 1b Con1 replicon, RLuc reporter); assay: microbe, parasite or virus in culture; details: Hepatitis C virus, read-out: 1b (nM)
How it was run: as §1

[7] = tested on: HCV 4a Rluc cells (NS5A chimeric genotype 1b Con1 replicon with genotype 4a NS5A gene); assay: microbe, parasite or virus in culture; details: Hepatitis C virus, read-out: 4a
How it was run: as §1

[8] = tested on: HCV 2a JFH-1 Rluc cells (dicistronic genotype 2a JFH-1 replicon, RLuc reporter); assay: microbe, parasite or virus in culture; details: Hepatitis C virus, read-out: 2a JFH
How it was run: as §1

[9] = read-out: 3a, genotype 3a replicon
[10] = read-out: 3a, genotype 3a NS5A chimeric replicon
[11] = genotype 2a JFH-1 RLuc replicon

SMILES	pEC50 [1]	pEC50 [2]	pEC50 [3, 9]	pEC50 ([4]; genotype 1a replicon)	pEC50 [5]	EC50 [6]	pEC50 [7]	pEC50 ([8]; genotype 2a JFH-1 replicon)	pEC50 [3, 10]	pEC50 ([4]; genotype 1a H77 RLuc replicon)	pEC50 [8, 11]
COC[C@H]1CC(c2nc3ccc4cc(-c5ccc(-c6cnc([C@@H]7CCCN7C(=O)[C@H](NC(=O)C7CC7)c7ccccc7)[nH]6)cc5)ccc4c3[nH]2)N(C(=O)[C@@H](NC(=O)OC)C(C)C)C1 (stereo in doubt) [Example 425]	9.00 to 12.00	9.00 to 12.00	9.00 to 12.00	9.00 to 12.00	9.00 to 12.00	0.034 nM	9.00 to 12.00	9.00 to 12.00	–	–	–
COC[C@H]1C[C@@H](c2ncc(-c3ccc(-c4ccc(-c5cnc([C@@H]6CCCN6C(=O)[C@@H](NC(=O)OC)C(C)C)[nH]5)cc4)cc3)[nH]2)N(C(=O)[C@H](NC(=O)C2CC2)c2ccccc2)C1 [Example 506]	9.00 to 12.00	9.00 to 12.00	–	–	9.00 to 12.00	0.036 nM	9.00 to 12.00	–	9.00 to 12.00	9.00 to 12.00	9.00 to 12.00
COC[C@H]1C[C@@H](c2nc3ccc4cc(-c5ccc(-c6cnc([C@@H]7CCCN7C(=O)[C@@H](NC(=O)OC)C(C)C)[nH]6)cc5)ccc4c3[nH]2)N(C(=O)[C@H](NC(=O)OC)c2ccccc2)C1 [Example 433]	9.00 to 12.00	9.00 to 12.00	9.00 to 12.00	9.00 to 12.00	9.00 to 12.00	0.02 nM	9.00 to 12.00	9.00 to 12.00	–	–	–
COC[C@H]1C[C@@H](c2nc3ccc4cc5c(cc4c3[nH]2)OCc2cc(-c3cnc([C@@H]4C[C@H]6C[C@H]6N4C(=O)[C@@H](NC(=O)OC)C(C)C)[nH]3)ccc2-5)N(C(=O)[C@H](NC(=O)OC)c2ccccc2)C1 [Example 539]	9.00 to 12.00	9.00 to 12.00	–	–	9.00 to 12.00	0.016 nM	9.00 to 12.00	–	9.00 to 12.00	9.00 to 12.00	9.00 to 12.00
COC[C@H]1C[C@@H](c2ncc(-c3ccc4c(c3)COc3cc5c(ccc6nc([C@@H]7CCCN7C(=O)[C@@H](NC(=O)OC)C(C)C)[nH]c65)cc3-4)[nH]2)N(C(=O)[C@H](NC(=O)OC)c2ccccc2)C1 [Example 590]	9.00 to 12.00	9.00 to 12.00	–	–	9.00 to 12.00	0.014 nM	9.00 to 12.00	–	9.00 to 12.00	9.00 to 12.00	9.00 to 12.00
COC[C@H]1C[C@@H](c2nc3ccc4cc(-c5ccc(-c6cnc([C@@H]7CCCN7C(=O)[C@@H](NC(=O)OC)C(C)C)[nH]6)cc5)ccc4c3[nH]2)N(C(=O)[C@H](NC(=O)C2CC2)c2ccccc2)C1 [Example 475]	9.00 to 12.00	9.00 to 12.00	9.00 to 12.00	9.00 to 12.00	9.00 to 12.00	0.019 nM	9.00 to 12.00	9.00 to 12.00	–	–	–
COC[C@H]1C[C@@H](c2ncc(-c3cc4c5c(c3)OCc3cc(-c6cnc([C@@H]7CC[C@H](C)N7C(=O)[C@@H](NC(=O)OC)C(C)C)[nH]6)cc(c3-5)OC4)[nH]2)N(C(=O)[C@H](NC(=O)OC)c2ccccc2)C1 [Example 596]	9.00 to 12.00	9.00 to 12.00	–	–	9.00 to 12.00	0.013 nM	9.00 to 12.00	–	9.00 to 12.00	9.00 to 12.00	9.00 to 12.00
COC(=O)N[C@H](C(=O)N1CCC[C@H]1c1ncc(-c2ccc(-c3ccc4c(ccc5nc([C@@H]6CCCN6C(=O)[C@@H](NC(=O)OC)C(C)C)[nH]c54)c3)c(C#Cc3ccccc3)c2)[nH]1)C(C)C [Example 438]	< 7.36	7.36 to 9.00	9.00 to 12.00	9.00 to 12.00	< 7.36	0.003 nM	9.00 to 12.00	9.00 to 12.00	–	–	–
COC(=O)N[C@H](C(=O)N1CCC[C@H]1c1ncc(-c2ccc3c(c2)COc2cc4c(ccc5nc([C@@H]6CCCN6C(=O)[C@@H](NC(=O)OC)C(C)C)[nH]c54)cc2-3)[nH]1)C(C)C [Example 422]	7.36 to 9.00	9.00 to 12.00	9.00 to 12.00	9.00 to 12.00	9.00 to 12.00	0.017 nM	9.00 to 12.00	9.00 to 12.00	–	–	–
COC[C@H]1C[C@@H](c2nc3ccc4cc(-c5ccc6c(ccc7nc([C@@H]8C[C@H](SC)CN8C(=O)[C@@H](NC(=O)OC)C(C)C)[nH]c76)c5)ccc4c3[nH]2)N(C(=O)[C@H](NC(=O)OC)c2ccccc2)C1 [Example 546]	9.00 to 12.00	9.00 to 12.00	–	–	9.00 to 12.00	0.048 nM	9.00 to 12.00	–	9.00 to 12.00	9.00 to 12.00	9.00 to 12.00
CCO[C@H]1C[C@@H](c2nc3ccc4cc5c(cc4c3[nH]2)OCc2cc(-c3cnc([C@@H]4CCCN4C(=O)[C@H](NC(=O)OC)c4ccccc4)[nH]3)ccc2-5)N(C(=O)[C@@H](NC(=O)OC)C(C)C)C1 [Example 552]	9.00 to 12.00	9.00 to 12.00	–	–	9.00 to 12.00	0.033 nM	9.00 to 12.00	–	9.00 to 12.00	9.00 to 12.00	9.00 to 12.00
COC[C@H]1C[C@@H](c2nc3ccc4cc(-c5ccc6c(ccc7nc([C@@H]8CCCN8C(=O)[C@@H](NC(=O)OC)C(C)C)[nH]c76)c5)ccc4c3[nH]2)N(C(=O)[C@H](NC(=O)OC)c2ccccc2)C1 [Example 453]	9.00 to 12.00	9.00 to 12.00	9.00 to 12.00	9.00 to 12.00	9.00 to 12.00	0.018 nM	9.00 to 12.00	9.00 to 12.00	–	–	–
COC(=O)N[C@H](C(=O)N1[C@@H]2C[C@@H]2C[C@H]1c1ncc(-c2cc3c4c(c2)OCc2cc(-c5cnc([C@@H]6C[C@H]7C[C@H]7N6C(=O)[C@@H](NC(=O)OC)C(C)C)[nH]5)cc(c2-4)OC3)[nH]1)C(C)C [Example 414]	7.36 to 9.00	7.36 to 9.00	9.00 to 12.00	9.00 to 12.00	7.36 to 9.00	0.022 nM	9.00 to 12.00	9.00 to 12.00	–	–	–
COC(=O)N[C@H](C(=O)N1CCC[C@H]1c1nc2ccc3cc(-c4ccc5c(ccc6nc([C@@H]7[C@@H]8CC[C@@H](C8)N7C(=O)[C@@H](NC(=O)OC)C(C)C)[nH]c65)c4)ccc3c2[nH]1)C(C)C [Example 339]	9.00 to 12.00	7.36 to 9.00	9.00 to 12.00	9.00 to 12.00	7.36 to 9.00	0.026 nM	9.00 to 12.00	9.00 to 12.00	–	–	–
COC[C@H]1C[C@@H](c2ncc(-c3ccc(-c4ccc(-c5cnc([C@@H]6CCCN6C(=O)[C@@H](NC(=O)OC)C(C)C)[nH]5)cc4)cc3)[nH]2)N(C(=O)[C@H](NC(=O)OC)c2ccccc2)C1 [Example 500]	7.36 to 9.00	9.00 to 12.00	–	–	9.00 to 12.00	0.028 nM	9.00 to 12.00	–	9.00 to 12.00	9.00 to 12.00	9.00 to 12.00
COC(=O)N[C@H](C(=O)N1C[C@@H](C)C[C@H]1c1nc2ccc3cc4c(cc3c2[nH]1)OCc1cc(-c2cnc([C@@H]3C[C@H](C)CN3C(=O)[C@H](NC(=O)OC)c3ccccc3)[nH]2)ccc1-4)C(C)C [Example 573]	9.00 to 12.00	9.00 to 12.00	–	–	9.00 to 12.00	0.03 nM	9.00 to 12.00	–	9.00 to 12.00	9.00 to 12.00	9.00 to 12.00
COC[C@H]1C[C@@H](c2nc3ccc4cc(-c5ccc6c(ccc7nc([C@@H]8C[C@H](C)CN8C(=O)[C@@H](NC(=O)OC)C(C)C)[nH]c76)c5)ccc4c3[nH]2)N(C(=O)[C@H](N)c2ccccc2)C1 [Example 545]	9.00 to 12.00	9.00 to 12.00	–	–	9.00 to 12.00	0.075 nM	9.00 to 12.00	–	9.00 to 12.00	9.00 to 12.00	9.00 to 12.00
COC[C@H]1C[C@@H](c2nc3ccc4cc(-c5ccc6c(ccc7nc([C@@H]8C[C@H](COC)CN8C(=O)[C@@H](NC(=O)OC)C(C)C)[nH]c76)c5)ccc4c3[nH]2)N(C(=O)[C@@H](NC(=O)OC)C(C)C)C1 [Example 436]	9.00 to 12.00	9.00 to 12.00	9.00 to 12.00	9.00 to 12.00	9.00 to 12.00	0.051 nM	9.00 to 12.00	9.00 to 12.00	–	–	–
COC[C@H]1C[C@@H](c2ncc(-c3ccc4c(c3)COc3cc5c(ccc6nc([C@@H]7C[C@H](COC)CN7C(=O)[C@@H](NC(=O)OC)C(C)C)[nH]c65)cc3-4)[nH]2)N(C(=O)[C@@H](NC(=O)OC)C(C)C)C1 [Example 579]	9.00 to 12.00	9.00 to 12.00	–	–	9.00 to 12.00	0.034 nM	9.00 to 12.00	–	9.00 to 12.00	9.00 to 12.00	9.00 to 12.00
